Results: patent US20050154230A1, “Urea derivatives” (Bayer HealthCare AG, priority 2001, published 2005)

Target: T1, human VR1 (Homo sapiens, UniProt Q8NER1)
T1 construct: expressed in transfected cells
Experiment: Capsaicin-induced Ca2+ influx in the human VR1-transfected CHO cell line (Assay 1)
Type: cell-based
Settings: human VR1-CHOluc9aeq cells, 10 nM capsaicin; compound purity about 40 to 90%; read-out: hVR1 class
Experimental: [Measurement of Capsaicin-Induced Ca^2+ Influx in the Human VR1-Transfected CHO Cell Line] (Assay 1)
(1) Establishment of the Human VR1-CHOluc9aeq Cell Line
The cloned hVR1 cDNA was constructed with pcDNA3 vector and transfected into a CHOluc9aeq cell line. The cell line contains aequorin and CRE-luciferase reporter genes as read-out signals. The transfectants were cloned by limiting dilution in selection medium (DMEM/F12 medium (Gibco BRL) supplemented with 10% FCS, 1.4 mM Sodium pyruvate, 20 mM HEPES, 0.15% Sodium bicarbonate, 100 U/ml penicillin, 100 μg/ml streptomycin, 2 mM glutamine, non-essential amino acids and 2 mg/ml G418). Ca^2+ influx was examined in the capsaicin-stimulated clones. […] The human VR1-CHOluc9aeq cells were maintained in the selection medium and passaged every 3-4 days at 1-2.5×10^5 cells/flask ([…]).
(2) Measurement of Ca^2+ Influx Using FDSS-3000
Human VR1-CHOluc9aeq cells were suspended in a culture medium which is the same as the selection medium except for G418 and seeded at a density of 1,000 cells per well into 384-well plates (black walled clear-base/Nalge Nunc International). […] After washing twice with assay buffer the cells were incubated with a test compound or vehicle for 20 min at 25° C. […] Integral R was calculated and compared with controls.

T1 sequence (Q8NER1 whole entry): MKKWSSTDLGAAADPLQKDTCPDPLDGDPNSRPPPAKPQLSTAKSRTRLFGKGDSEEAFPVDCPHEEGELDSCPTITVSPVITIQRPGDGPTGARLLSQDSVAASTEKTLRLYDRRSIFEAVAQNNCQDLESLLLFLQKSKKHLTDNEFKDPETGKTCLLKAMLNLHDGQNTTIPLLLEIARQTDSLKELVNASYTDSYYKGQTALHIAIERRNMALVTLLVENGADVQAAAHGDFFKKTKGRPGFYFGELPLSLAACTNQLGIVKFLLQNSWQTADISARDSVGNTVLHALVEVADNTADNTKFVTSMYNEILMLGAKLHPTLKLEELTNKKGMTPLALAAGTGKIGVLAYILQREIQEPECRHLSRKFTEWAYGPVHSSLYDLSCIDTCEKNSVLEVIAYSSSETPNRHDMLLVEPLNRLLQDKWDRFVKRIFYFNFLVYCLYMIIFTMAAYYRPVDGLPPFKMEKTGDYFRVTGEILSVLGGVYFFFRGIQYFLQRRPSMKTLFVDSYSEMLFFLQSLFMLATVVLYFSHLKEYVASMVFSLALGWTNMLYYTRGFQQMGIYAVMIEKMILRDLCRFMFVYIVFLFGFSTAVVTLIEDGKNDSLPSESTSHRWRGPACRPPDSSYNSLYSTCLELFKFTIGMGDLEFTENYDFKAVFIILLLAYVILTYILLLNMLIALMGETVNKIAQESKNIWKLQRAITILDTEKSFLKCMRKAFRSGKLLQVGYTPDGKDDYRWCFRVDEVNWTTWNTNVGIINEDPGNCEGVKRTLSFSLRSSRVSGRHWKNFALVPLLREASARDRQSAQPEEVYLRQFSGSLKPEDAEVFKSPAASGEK

Structure (SMILES): O=C(NCc1cccc(Cl)c1)Nc1ccccc1 [Example 38]
- IC50: 500 to 1000 nM

Structure (SMILES): COc1cccc(CNC(=O)Nc2ccccc2)c1 [Example 9]
- IC50: 500 to 1000 nM

Structure (SMILES): COc1cc2c(cc1OC)CN(C(=O)Nc1ccccc1)CC2 [Example 21]
- IC50: 500 to 1000 nM

Structure (SMILES): COC(=O)c1ccccc1NC(=O)NCc1ccc(O)c(OC)c1 [Example 61]
- IC50: 500 to 1000 nM

Structure (SMILES): COc1cccc(NC(=O)NCc2cccc(O)c2)c1 [Example 30]
- IC50: 500 to 1000 nM

Structure (SMILES): CN(C)CCNS(=O)(=O)c1ccc2c(c1)CN(C(=O)Nc1ccc(Cl)c(C(F)(F)F)c1)CC2 [Example 87]
- IC50: 500 to 1000 nM

Structure (SMILES): O=C(Nc1ccc(Oc2ccccc2)cc1)N1CCc2ccc(S(=O)(=O)N3CCN(CCO)CC3)cc2C1 [Example 89]
- IC50: 500 to 1000 nM

Structure (SMILES): COc1cccc(NC(=O)NCc2ccc(F)c(F)c2)c1 [Example 51]
- IC50: 500 to 1000 nM

Structure (SMILES): CNS(=O)(=O)c1ccc2c(c1)CN(C(=O)Nc1ccc(Cl)c(C(F)(F)F)c1)CC2 [Example 85]
- IC50: 500 to 1000 nM

Structure (SMILES): O=C(NCc1cccc(F)c1)Nc1ccc(F)cc1 [Example 48]
- IC50: 500 to 1000 nM

Structure (SMILES): COc1cccc(NC(=O)Nc2cccc(-c3ccc(Cl)cc3)c2)c1CCO [Example 251]
- IC50: < 100 nM

Structure (SMILES): O=C(NCc1cccc(Cl)c1)Nc1ccc(F)cc1 [Example 40]
- IC50: 500 to 1000 nM

Structure (SMILES): O=C(NCc1cccc(O)c1)Nc1ccccc1 [Example 28]
- IC50: 500 to 1000 nM

Structure (SMILES): CC(C)c1cccc(C(C)C)c1NC(=O)Nc1ccccc1CCO [Example 142]
- IC50: 500 to 1000 nM

Structure (SMILES): COCOc1cccc(CNC(=O)Nc2ccccc2)c1 [Example 24]
- IC50: 500 to 1000 nM

Structure (SMILES): COc1cc(CNC(=O)Nc2cc(C(F)(F)F)ccc2Cl)ccc1O [Example 80]
- IC50: < 100 nM

Structure (SMILES): COCOc1cccc(CNC(=O)Nc2ccc(F)cc2)c1 [Example 27]
- IC50: 500 to 1000 nM

Structure (SMILES): CS(=O)(=O)Nc1ccc2c(c1)CN(C(=O)Nc1ccc(Br)cc1)CC2 [Example 93]
- IC50: 500 to 1000 nM

Structure (SMILES): COc1cccc(CNC(=O)Nc2cccc(SC)c2)c1 [Example 8]
- IC50: 500 to 1000 nM

Structure (SMILES): O=C(Nc1cccc(-c2ccc(Cl)cc2)c1)Nc1ccccc1CCO [Example 194]
- IC50: < 100 nM

Structure (SMILES): CS(=O)(=O)Nc1ccc2c(c1)CN(C(=O)NCc1ccc(Br)cc1)CC2 [Example 90]
- IC50: 500 to 1000 nM

Structure (SMILES): COc1ccc(CNC(=O)Nc2cccc(SC)c2)cc1O [Example 35]
- IC50: 500 to 1000 nM

Structure (SMILES): CC(C)(C)c1ccc(C(C)(C)C)c(NC(=O)Nc2ccccc2CCO)c1 [Example 177]
- IC50: 500 to 1000 nM

Structure (SMILES): O=C(NCc1ccc(F)c(F)c1)Nc1ccc(F)cc1 [Example 52]
- IC50: 500 to 1000 nM

Structure (SMILES): O=C(Nc1ccc(Cl)cc1Cl)Nc1ccccc1CCO [Example 138]
- IC50: 500 to 1000 nM

Structure (SMILES): CN(C)S(=O)(=O)c1ccc2c(c1)CN(C(=O)Nc1ccc(Cl)c(C(F)(F)F)c1)CC2 [Example 86]
- IC50: 500 to 1000 nM

Structure (SMILES): CSc1cccc(NC(=O)NCc2cccc(O)c2)c1 [Example 29]
- IC50: 500 to 1000 nM

Structure (SMILES): CSc1cccc(NC(=O)NCc2cccc(Cl)c2)c1 [Example 37]
- IC50: 500 to 1000 nM

Structure (SMILES): O=C(Nc1ccccc1CCO)Nc1cccc(Cl)c1Cl [Example 137]
- IC50: 500 to 1000 nM

Structure (SMILES): COCOc1cccc(CNC(=O)Nc2cccc(SC)c2)c1 [Example 26]
- IC50: 500 to 1000 nM

Structure (SMILES): COc1ccc(CNC(=O)Nc2cccc(SC)c2)cc1OC [Example 12]
- IC50: 500 to 1000 nM

Structure (SMILES): COc1cc(CNC(=O)Nc2ccccc2)ccc1O [Example 33]
- IC50: 500 to 1000 nM

Structure (SMILES): COc1ccc(CNC(=O)Nc2ccccc2)cc1O [Example 36]
- IC50: 500 to 1000 nM

Structure (SMILES): O=C(NCc1ccc2c(c1)OCO2)Nc1ccccc1 [Example 17]
- IC50: 500 to 1000 nM

Structure (SMILES): O=C(Nc1ccc(Cl)c(C(F)(F)F)c1)NC1CCCc2ccc([N+](=O)[O-])cc21 (stereo not shown) [Example 94]
- IC50: 500 to 1000 nM

Structure (SMILES): COc1cccc(CNC(=O)Nc2ccc(F)cc2)c1 [Example 11]
- IC50: 500 to 1000 nM

Structure (SMILES): O=C(Nc1ccccc1CCO)Nc1c(Cl)cccc1Cl [Example 139]
- IC50: 500 to 1000 nM

Structure (SMILES): CC(=O)Nc1ccc2c(c1)C(NC(=O)Nc1ccc(Cl)c(C(F)(F)F)c1)CCC2 (stereo not shown) [Example 97]
- IC50: 500 to 1000 nM

Structure (SMILES): CSc1cccc(NC(=O)NCc2cccc(F)c2)c1 [Example 45]
- IC50: 500 to 1000 nM

Structure (SMILES): COc1cc2c(cc1OC)CN(C(=O)Nc1ccc(F)cc1)CC2 [Example 23]
- IC50: 500 to 1000 nM
